ChEMBL document CHEMBL5236586, “Novel ginsenoside derivatives induce apoptosis in HepG-2 cells via the MDM2-p53 signaling pathway” (Bioorg Med Chem Lett, 2022)
Active and inactive are the calls of the source. No cut-off for these calls is given here.

Legend:
[1] = target: E3 ubiquitin-protein ligase Mdm2 (Homo sapiens) (UniProt Q00987); experiment: Inhibition of MDM2 in human HepG2 cells assessed as increase in p53 protein level at 1.25 to 5 uM incubated for 12 hrs by Western blot analysis; type: cell-based; conditions: dose 1.25-5 µM
HepG2 [2] = experiment: Effect on cell morphology in human HepG2 cells assessed as cell shrinkage at 1.25 to 5 uM by DAPI staining based analysis; type: functional; conditions: dose 1.25-5 µM
HepG2 [3] = experiment: Induction of apoptosis in human HepG2 cells at 1.25 to 5 uM by DAPI staining based analysis; type: functional, cell-based; conditions: dose 1.25-5 µM
HepG2 [4] = experiment: Induction of apoptosis in human HepG2 cells assessed as decrease in Bcl-2 expression level at 1.25 to 5 uM incubated for 12 hrs by Western blot analysis; type: functional, cell-based; conditions: dose 1.25-5 µM
[5] = target: E3 ubiquitin-protein ligase Mdm2 (Homo sapiens) (UniProt Q00987); experiment: Inhibition of MDM2 in human HepG2 cells assessed as decrease in MDM2 protein level at 1.25 to 5 uM incubated for 12 hrs by Western blot analysis; type: cell-based; conditions: dose 1.25-5 µM
A549 = experiment: Antiproliferative activity against human A549 cells assessed as inhibition of cell proliferation by MTT assay; type: functional, cell-based
HepG2 [6] = experiment: Induction of apoptosis in human HepG2 cells assessed as decrease in caspase-3 expression level at 1.25 to 5 uM incubated for 12 hrs by Western blot analysis; type: functional, cell-based; conditions: dose 1.25-5 µM
[7] = Cytotoxicity against mouse L929 cells assessed as inhibition of cell proliferation by MTT assay; type: toxicity, cell-based
PC-3 = experiment: Antiproliferative activity against human PC-3 cells assessed as inhibition of cell proliferation by MTT assay; type: functional, cell-based
HepG2 [8] = experiment: Potency index, ratio of PD IC50 to test compound IC50 for antiproliferative activity against human HepG2 cells assessed as inhibition of cell proliferation by MTT assay; type: functional
HepG2 [9] = experiment: Induction of apoptosis in human HepG2 cells assessed as increase in Bax level at 1.25 to 5 uM incubated for 12 hrs by Western blot analysis; type: functional, cell-based; conditions: dose 1.25-5 µM
HepG2 [10] = experiment: Induction of apoptosis in human HepG2 cells assessed as increase in cleaved caspase-3 level at 1.25 to 5 uM incubated for 12 hrs by Western blot analysis; type: functional, cell-based; conditions: dose 1.25-5 µM
HepG2 [11] = experiment: Induction of apoptosis in human HepG2 cells assessed as increase in cleaved PARP level at 1.25 to 5 uM incubated for 12 hrs by Western blot analysis; type: functional, cell-based; conditions: dose 1.25-5 µM
HepG2 [12] = experiment: Antiproliferative activity against human HepG2 cells assessed as inhibition of cell proliferation by MTT assay; type: functional, cell-based
HepG2 [13] = experiment: Effect on cell morphology in human HepG2 cells at 5 uM by DAPI staining based analysis; type: functional
HepG2 [14] = experiment: Antiproliferative activity against human HepG2 cells assessed as inhibition of cell growth; type: functional, cell-based

Sequence of E3 ubiquitin-protein ligase Mdm2 (Homo sapiens) (Q00987 whole entry, looked up): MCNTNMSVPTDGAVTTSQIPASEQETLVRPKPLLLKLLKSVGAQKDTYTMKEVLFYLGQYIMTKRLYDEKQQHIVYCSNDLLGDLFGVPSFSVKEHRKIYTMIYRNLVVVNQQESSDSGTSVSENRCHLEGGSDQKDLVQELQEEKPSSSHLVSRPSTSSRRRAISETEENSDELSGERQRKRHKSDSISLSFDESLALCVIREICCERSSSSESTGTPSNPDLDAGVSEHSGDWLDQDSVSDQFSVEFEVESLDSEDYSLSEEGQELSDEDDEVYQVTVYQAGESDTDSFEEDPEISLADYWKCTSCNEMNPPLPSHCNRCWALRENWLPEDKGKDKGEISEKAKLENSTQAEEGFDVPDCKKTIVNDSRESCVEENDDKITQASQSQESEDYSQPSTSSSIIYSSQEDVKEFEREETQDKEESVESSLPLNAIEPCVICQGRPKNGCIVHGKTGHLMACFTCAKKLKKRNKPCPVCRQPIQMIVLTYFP

SMILES	IC50 (A549)	IC50 [7]	IC50 (PC-3)	Ratio IC50 (HepG2 [8])	IC50 (HepG2 [12])	further results
CC(C)c1ccc(-c2nc(SCC(=O)O[C@H]3CC[C@@]4(C)[C@@H](CC[C@]5(C)[C@H]4C[C@@H](O)[C@@H]4C([C@@]6(C)CCCC(C)(C)O6)CC[C@]45C)C3(C)C)[nH]c(=O)c2C#N)cc1 (some centres not stated)	6.98 µM	58.8 µM	7.04 µM	28	2.13 µM	Activity [1]: Active; Activity (HepG2 [2]): Active; Activity (HepG2 [3]): Active; Activity (HepG2 [4]): Active; Activity [5]: Active; Activity (HepG2 [6]): Active; Activity (HepG2 [9]): Active; Activity (HepG2 [10]): Active; Activity (HepG2 [11]): Active
Cc1ccc(-c2nc(SCC(=O)O[C@H]3CC[C@@]4(C)[C@@H](CC[C@]5(C)[C@H]4C[C@@H](O)[C@@H]4[C@H]([C@@]6(C)CCCC(C)(C)O6)CC[C@]45C)C3(C)C)[nH]c(=O)c2C#N)cc1	6.77 µM	77.4 µM	7.73 µM	12	4.51 µM	
O=c1[nH]cc(F)c(=O)[nH]1 [FLUOROURACIL]	29.2 µM	> 100 µM				Activity (HepG2 [13]): inactive
CC1(C)CCC[C@](C)([C@@H]2CC[C@]3(C)[C@@H]2[C@H](O)CC2[C@@]4(C)CC[C@H](OC(=O)CSc5nc(-c6ccc(C(F)(F)F)cc6)c(C#N)c(=O)[nH]5)C(C)(C)[C@@H]4CC[C@]23C)O1 (some centres not stated)	7.03 µM	68.7 µM	8.74 µM	21	3.16 µM	
CC1(C)CCC[C@](C)([C@@H]2CC[C@]3(C)[C@@H]2[C@H](O)C[C@H]2[C@@]4(C)CC[C@H](OC(=O)CSc5nc6ccc(Cl)cc6c(=O)[nH]5)C(C)(C)[C@@H]4CC[C@]23C)O1	> 100 µM	> 100 µM	> 100 µM		80.5 µM	
N#Cc1c(-c2cn(-c3ccccc3)nc2-c2cc3ccccc3o2)[nH]c(NN)nc1=O						IC50 (HepG2 [14]): 12.5 µM
